According to US12723063B2, “GIPR-agonist compounds” (Eli Lilly and Company, priority 2019, dated 2026):
*1 amine or outer side, *2 acyl side, *3 side chain or, on linkers, in order; H or OH if unused. Where a SMILES comes first, the peptide text is derived from it. Side-chain parts run from the residue outwards. [ ]: non-standard residue; d: D form. The star is where a group is joined. C20 diacid = O=C(O)CCCCCCCCCCCCCCCCCCC(=O)*; C18 diacid = O=C(O)CCCCCCCCCCCCCCCCC(=O)*; αMePhe(2-F) = C[C@](N)(Cc1ccccc1F)C(=O)O; γGlu = O=C(O)[C@H](CCC(=O)[*:2])N[*:1]; αMeF = C[C@](N)(Cc1ccccc1)C(=O)O; 4Pal = N[C@@H](Cc1ccncc1)C(=O)O; αMeL = CC(C)C[C@](C)(N)C(=O)O; Orn = NCCC[C@H](N)C(=O)O; AEEA = NCCOCCOCC(=O)O; Aib = CC(C)(N)C(=O)O

Target: T1, human GcgR (Homo sapiens, UniProt P47871)
T1 construct: expressed in transfected cells; crude membranes
Assay: [125I]-Glucagon binding, SPA with WGA beads, 0.1% bacitracin
Details: geometric mean, read-out: hGcgR Ki
Procedure, shortened: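 SPA competition binding with WGA beads on crude membranes from HEK293 cells stably expressing hGcgR. Buffer: 25 mM HEPES pH 7.4, 2.5 mM CaCl2, 1 mM MgCl2, 0.1% bacitracin, 0.003% Tween-20; 10-point 3-fold dilutions, NSB with 1 μM Gcg.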

T1 sequence (P47871 26-477): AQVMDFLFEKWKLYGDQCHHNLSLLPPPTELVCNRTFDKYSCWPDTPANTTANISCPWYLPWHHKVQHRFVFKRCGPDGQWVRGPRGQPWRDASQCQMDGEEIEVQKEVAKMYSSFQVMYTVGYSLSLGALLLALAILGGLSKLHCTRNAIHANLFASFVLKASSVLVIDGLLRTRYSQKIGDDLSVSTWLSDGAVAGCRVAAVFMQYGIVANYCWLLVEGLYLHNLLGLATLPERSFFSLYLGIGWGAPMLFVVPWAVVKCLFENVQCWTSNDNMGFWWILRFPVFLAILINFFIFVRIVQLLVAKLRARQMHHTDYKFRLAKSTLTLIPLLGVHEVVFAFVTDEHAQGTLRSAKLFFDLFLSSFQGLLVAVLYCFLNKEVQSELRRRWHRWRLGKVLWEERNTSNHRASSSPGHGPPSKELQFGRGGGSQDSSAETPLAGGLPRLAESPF

`CC[C@H](C)[C@H](NC(=O)[C@H](CO)NC(=O)[C@H](Cc1ccc(O)cc1)NC(=O)[C@H](CC(=O)O)NC(=O)[C@H](CO)NC(=O)[C@@H](NC(=O)[C@H](Cc1ccccc1)NC(=O)[C@@H](NC(=O)CNC(=O)[C@H](CCC(=O)O)NC(=O)C(C)(C)NC(=O)[C@@H](N)Cc1ccc(O)cc1)[C@@H](C)O)[C@@H](C)CC)C(=O)N[C@@H](C)C(=O)N[C@@H](CC(C)C)C(=O)N[C@@H](CC(=O)O)C(=O)N[C@@H](CCCCN)C(=O)N[C@H](C(=O)N[C@@H](Cc1c[nH]cn1)C(=O)N[C@@H](CCC(N)=O)C(=O)NC(C)(C)C(=O)N[C@@H](CCC(=O)O)C(=O)N[C@@H](Cc1ccccc1)C(=O)N[C@H](C(=O)N[C@@H](CC(N)=O)C(=O)N[C@@H](Cc1ccc(O)cc1)C(=O)N[C@@H](CCCCNC(=O)COCCOCCNC(=O)COCCOCCNC(=O)CC[C@H](NC(=O)CCCCCCCCCCCCCCCCCCC(=O)O)C(=O)O)C(=O)N[C@@H](CC(C)C)C(=O)N[C@@H](C)C(=O)NCC(=O)NCC(=O)N1CCC[C@H]1C(=O)N[C@@H](CO)C(=O)N[C@@H](CO)C(=O)NCC(=O)N[C@@H](C)C(=O)N1CCC[C@H]1C(=O)N1CCC[C@H]1C(=O)N1CCC[C@H]1C(=O)N[C@@H](CO)C(N)=O)C(C)C)[C@@H](C)CC` [Example 96] (H-Y[Aib]EGTFISDYSIALDKIHQ[Aib]EFVNYK([AEEA-AEEA-γGlu-C20 diacid])LAGGPSSGAPPPS-NH2) gave a Ki of over 960 nM.
In the case of `CC[C@H](C)[C@H](NC(=O)[C@H](CO)NC(=O)[C@H](Cc1ccc(O)cc1)NC(=O)[C@H](CC(=O)O)NC(=O)[C@H](CO)NC(=O)[C@@H](NC(=O)[C@H](Cc1ccccc1)NC(=O)[C@@H](NC(=O)CNC(=O)[C@H](CCC(=O)O)NC(=O)[C@@H](C)NC(=O)[C@@H](N)Cc1ccc(O)cc1)[C@@H](C)O)[C@@H](C)CC)C(=O)N[C@@H](CC(C)C)C(=O)N[C@@H](CC(C)C)C(=O)N[C@@H](CC(=O)O)C(=O)N[C@@H](CCCCN)C(=O)N[C@@H](CCCCNC(=O)COCCOCCNC(=O)COCCOCCNC(=O)CC[C@H](NC(=O)CCCCCCCCCCCCCCCCC(=O)O)C(=O)O)C(=O)N[C@@H](C)C(=O)N[C@@H](CCC(N)=O)C(=O)NC(C)(C)C(=O)N[C@@H](CC(=O)O)C(=O)N[C@@H](Cc1ccccc1)C(=O)N[C@H](C(=O)N[C@@H](CCC(=O)O)C(=O)N[C@@H](Cc1c[nH]c2ccccc12)C(=O)N[C@@H](CC(C)C)C(=O)N[C@@H](CC(C)C)C(=O)N[C@@H](C)C(=O)N[C@@H](CCC(N)=O)C(=O)NCC(=O)N1CCC[C@H]1C(=O)N[C@@H](CO)C(=O)N[C@@H](CO)C(=O)NCC(=O)N[C@@H](C)C(=O)N1CCC[C@H]1C(=O)N1CCC[C@H]1C(=O)N1CCC[C@H]1C(=O)N[C@@H](CO)C(N)=O)C(C)C` [Example 16] (H-Y[dA]EGTFISDYSILLDKK([AEEA-AEEA-γGlu-C18 diacid])AQ[Aib]DFVEWLLAQGPSSGAPPPS-NH2), the Ki is reported as 549 nM.
For `CC[C@H](C)[C@H](NC(=O)[C@H](CO)NC(=O)[C@H](Cc1ccc(O)cc1)NC(=O)[C@H](CC(=O)O)NC(=O)[C@H](CO)NC(=O)[C@@H](NC(=O)[C@H](Cc1ccccc1)NC(=O)[C@@H](NC(=O)CNC(=O)[C@H](CCC(=O)O)NC(=O)[C@@H](C)NC(=O)[C@@H](N)Cc1ccc(O)cc1)[C@@H](C)O)[C@@H](C)CC)C(=O)N[C@@H](CC(C)C)C(=O)N[C@@H](CC(C)C)C(=O)N[C@@H](CC(=O)O)C(=O)N[C@@H](CCCCN)C(=O)N[C@@H](CCCCNC(=O)COCCOCCNC(=O)COCCOCCNC(=O)CC[C@H](NC(=O)CCCCCCCCCCCCCCCCC(=O)O)C(=O)O)C(=O)N[C@@H](C)C(=O)N[C@@H](CCC(N)=O)C(=O)NC(C)(C)C(=O)N[C@@H](CC(=O)O)C(=O)N[C@@H](Cc1ccccc1)C(=O)N[C@H](C(=O)N[C@@H](CC(N)=O)C(=O)N[C@@H](Cc1c[nH]c2ccccc12)C(=O)N[C@@H](CC(C)C)C(=O)N[C@@H](CC(C)C)C(=O)N[C@@H](C)C(=O)NCC(=O)NCC(=O)N1CCC[C@H]1C(=O)N[C@@H](CO)C(=O)N[C@@H](CO)C(=O)NCC(=O)N[C@@H](C)C(=O)N1CCC[C@H]1C(=O)N1CCC[C@H]1C(=O)N1CCC[C@H]1C(=O)N[C@@H](CO)C(N)=O)C(C)C` [Example 19] (H-Y[dA]EGTFISDYSILLDKK([AEEA-AEEA-γGlu-C18 diacid])AQ[Aib]DFVNWLLAGGPSSGAPPPS-NH2), the Ki was 335 nM.
For `CC[C@H](C)[C@H](NC(=O)[C@H](Cc1ccccc1)NC(=O)[C@@H](NC(=O)CNC(=O)[C@H](CCC(=O)O)NC(=O)C(C)(C)NC(=O)[C@@H](N)Cc1ccc(O)cc1)[C@@H](C)O)C(=O)N[C@@H](CO)C(=O)N[C@@H](CC(=O)O)C(=O)N[C@@H](Cc1ccc(O)cc1)C(=O)N[C@@H](CO)C(=O)N[C@H](C(=O)N[C@@](C)(CC(C)C)C(=O)N[C@@H](CC(C)C)C(=O)N[C@@H](CC(=O)O)C(=O)N[C@@H](CCCN)C(=O)N[C@@H](CCCCNC(=O)COCCOCCNC(=O)COCCOCCNC(=O)CC[C@H](NC(=O)CCCCCCCCCCCCCCCCCCC(=O)O)C(=O)O)C(=O)N[C@@H](Cc1c[nH]cn1)C(=O)N[C@@H](CCC(N)=O)C(=O)NC(C)(C)C(=O)N[C@@H](CC(=O)O)C(=O)N[C@@H](Cc1ccccc1)C(=O)N[C@H](C(=O)N[C@@H](CCC(=O)O)C(=O)N[C@@H](Cc1ccncc1)C(=O)N[C@@H](CC(C)C)C(=O)N[C@@H](CC(C)C)C(=O)N[C@@H](CCC(=O)O)C(=O)N[C@H](C(=O)NCC(=O)N1CCC[C@H]1C(=O)N[C@@H](CO)C(=O)N[C@@H](CO)C(=O)NCC(=O)N[C@@H](C)C(=O)N1CCC[C@H]1C(=O)N1CCC[C@H]1C(=O)N1CCC[C@H]1C(=O)N[C@@H](CO)C(N)=O)[C@@H](C)O)C(C)C)[C@@H](C)CC` [Example 80] (H-Y[Aib]EGTFISDYSI[αMeL]LD[Orn]K([AEEA-AEEA-γGlu-C20 diacid])HQ[Aib]DFVE[4Pal]LLETGPSSGAPPPS-NH2), the Ki was over 958 nM.
Compound `CC[C@H](C)[C@H](NC(=O)[C@H](CO)NC(=O)[C@H](Cc1ccc(O)cc1)NC(=O)[C@H](CC(=O)O)NC(=O)[C@H](CO)NC(=O)[C@@H](NC(=O)[C@](C)(Cc1ccccc1)NC(=O)[C@@H](NC(=O)CNC(=O)[C@H](CCC(=O)O)NC(=O)C(C)(C)NC(=O)[C@@H](N)Cc1ccc(O)cc1)[C@@H](C)O)[C@@H](C)CC)C(=O)N[C@@H](C)C(=O)N[C@@H](CC(C)C)C(=O)N[C@@H](CC(=O)O)C(=O)N[C@@H](CCCCN)C(=O)N[C@H](C(=O)N[C@@H](Cc1c[nH]cn1)C(=O)N[C@@H](CCC(N)=O)C(=O)NC(C)(C)C(=O)N[C@@H](CCC(=O)O)C(=O)N[C@@H](Cc1ccccc1)C(=O)N[C@H](C(=O)N[C@@H](CC(N)=O)C(=O)N[C@@H](Cc1ccc(O)cc1)C(=O)N[C@@H](CCCCNC(=O)COCCOCCNC(=O)COCCOCCNC(=O)CC[C@H](NC(=O)CCCCCCCCCCCCCCCCCCC(=O)O)C(=O)O)C(=O)N[C@@H](CC(C)C)C(=O)N[C@@H](C)C(=O)NCC(=O)NCC(=O)N1CCC[C@H]1C(=O)N[C@@H](CO)C(=O)N[C@@H](CO)C(=O)NCC(=O)N[C@@H](C)C(=O)N1CCC[C@H]1C(=O)N1CCC[C@H]1C(=O)N1CCC[C@H]1C(=O)N[C@@H](CO)C(N)=O)C(C)C)[C@@H](C)CC` [Example 97] (H-Y[Aib]EGT[αMeF]ISDYSIALDKIHQ[Aib]EFVNYK([AEEA-AEEA-γGlu-C20 diacid])LAGGPSSGAPPPS-NH2) has a Ki of 77.5 nM.
In the case of `CC[C@H](C)[C@H](NC(=O)[C@H](CO)NC(=O)[C@H](Cc1ccc(O)cc1)NC(=O)[C@H](CC(=O)O)NC(=O)[C@H](CO)NC(=O)[C@@H](NC(=O)[C@](C)(Cc1ccccc1F)NC(=O)[C@@H](NC(=O)CNC(=O)[C@H](CCC(=O)O)NC(=O)C(C)(C)NC(=O)[C@@H](N)Cc1ccc(O)cc1)[C@@H](C)O)[C@@H](C)CC)C(=O)N[C@@H](C)C(=O)N[C@@H](CC(C)C)C(=O)N[C@@H](CC(=O)O)C(=O)N[C@@H](CCCCN)C(=O)N[C@H](C(=O)N[C@@H](Cc1c[nH]cn1)C(=O)N[C@@H](CCC(N)=O)C(=O)NC(C)(C)C(=O)N[C@@H](CC(=O)O)C(=O)N[C@@H](Cc1ccccc1)C(=O)N[C@H](C(=O)N[C@@H](CCC(=O)O)C(=O)N[C@@H](Cc1ccncc1)C(=O)N[C@@H](CCCCNC(=O)COCCOCCNC(=O)COCCOCCNC(=O)CC[C@H](NC(=O)CCCCCCCCCCCCCCCCCCC(=O)O)C(=O)O)C(=O)N[C@@H](CC(C)C)C(=O)N[C@@H](CCC(=O)O)C(=O)N[C@@H](C)C(=O)NCC(=O)N1CCC[C@H]1C(=O)N[C@@H](CO)C(=O)N[C@@H](CO)C(=O)NCC(=O)N[C@@H](C)C(=O)N1CCC[C@H]1C(=O)N1CCC[C@H]1C(=O)N1CCC[C@H]1C(=O)N[C@@H](CO)C(N)=O)C(C)C)[C@@H](C)CC` [Example 113] (H-Y[Aib]EGT[αMePhe(2-F)]ISDYSIALDKIHQ[Aib]DFVE[4Pal]K([AEEA-AEEA-γGlu-C20 diacid])LEAGPSSGAPPPS-NH2), the Ki is reported as 821 nM.
